Assay results: PubChem BioAssay AID1919010 (Molecular Pharmacology Branch, DTP, NCI, 2023)

Tested on: Hs578T complex spheroid growth, percent test/control
Test: Anticancer human tumor Hs578T cell line growth inhibition [AhR];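 further: luminescent viability signal as a proxy for spheroid growth; spheroids exposed to agents for one week after three days of growth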
Conditions: for IC50: curve of first compound; for viability, T/C: stronger effect = lower value
From the text: Multicellular complex tumor spheroid response to aryl hydrocarbon receptor antagonists in combination with a variety of drugs and investigational agents in selected tumor cell lines
The current study was undertaken to assess response to aryl hydrocarbon receptor antagonists in combination with standard-of-care drugs and investigational agents in solid tumor complex spheroid models. Complex spheroids include a stromal component modeled by human endothelial cells (HUVEC) and fibroblasts modeled by human mesenchymal stem cells (MSCs). The concentration ranges selected for each drug and investigational agent were based upon clinically achievable concentrations if the clinical Cmax of the agent was known.
Compounds. The drugs and investigational agents: BAY 2416964 (NSC825713), GNF351 (NSC835774), CH-223191 (NSC835775), CPI-455 (NSC825282), aza-TdCyd (NSC777586), decitabine (NSC127716), belinostat (NSC758774), entinostat (NSC756642), pevonedistat (NSC761192), tazemetostat (NSC777109), talazoparib (NSC765396), olaparib (NSC753686), selinexor (NSC780203), nedisertib (M3814, NSC802822), bortezomib (NSC756655), venetoclax (NSC766270), doxorubicin (NSC123127), elimusertib (BAY189344, NSC800525), ceralasertib (AZD6738, NSC777638), TAK-243 (NSC785004), alisertib (NSC759677), etoposide (NSC141540), topotecan (NSC609699), eribulin (NSC707389), gemcitabine (NSC613327), carboplatin (NSC241240), cisplatin (NSC119875), and SN-38 (NSC673596) were obtained from the National Cancer Institute (NCI) Developmental Therapeutics Program Chemical Repository (32). The FDA-approved anticancer drug set is available from the Developmental Therapeutics Program at https://dtp.cancer.gov/organization/dscb/obtaining/available plates.htm. […] The stock solutions were prepared in dimethyl sulfoxide (DMSO, Sigma-Aldrich, St. Louis, MO, cat. D2650), except for the platinum compounds which were prepared in saline (Quality Biological, Gaithersburg, MD, cat. 114-055-101), at 800-fold the tested concentration and stored at -70 degrees C prior to their use. All drugs and investigational agents were tested over a range starting from a high concentration at or near the clinical Cmax and decreasing in half-log increments. If the clinical Cmax for an agent had not been determined, the highest concentration tested was 10 microM (Table 1).
Cell Culture. All cells were maintained in an incubator at 37 degrees C and 5% CO2 with 95% humidity. The PDC lines were cultured according to standard operating procedures established by the NCI PDMR (https://pdmr.cancer.gov). Briefly, all PDCs were thawed and cultured in Matrigel-coated flasks prepared with a working solution of 1X Ham's F-12 nutrient mix, without supplementation (Invitrogen, Waltham, MA, cat. 11765054), 100 U/mL penicillin-streptomycin (Invitrogen, cat. 15140122), and 2.5% Matrigel (Corning Inc., Corning, NY, cat. 354248) for the first three passages. All PDCs were cultured in complete DMEM/F-12 media containing advanced DMEM/F-12 (Invitrogen, cat. 12634028), 4.9% defined fetal bovine serum, heat inactivated (HyClone Laboratories Inc., Logan, UT, cat. SH30070.03HI), 389 ng/mL hydrocortisone (Sigma-Aldrich, cat. H4001), 9.7 ng/mL human EGF recombinant protein (Invitrogen, cat. PHG0313), 23.4 microg/mL adenine (Sigma-Aldrich, cat. A2786), 97.3 U/mL penicillin-streptomycin (Invitrogen, cat. 15140122), 1.9 mM L-glutamine (Invitrogen, cat. 25030081), and 9.7 microM Y-27632 dihydrochloride (Tocris Bioscience, Bristol, United Kingdom, cat. 1254). The PDCs were cultured in complete DMEM/F12 media without 10 microM Y-27632 dihydrochloride for at least two passages prior to the screen. The established cell lines NCI-H1341 and […] were cultured in DMEM/F-12, HEPES (Invitrogen, cat. 11330032), 5% defined fetal bovine serum (HyClone Laboratories Inc., cat. SH30070.03), ITS premix universal culture supplement [insulin (5 microg/mL), transferrin (5 microg/mL), and selenious acid (5 ng/mL)] […]

`CC(C)CC(NC(=O)C(Cc1ccccc1)NC(=O)c1cnccn1)B(O)O` (stereo not given) + CC(CO)NC(=O)c1cc(-c2ccc(Cl)cc2)nn(-c2cnn(C)c2)c1=O showed an IC50 (second compound 0.1 µM) of 4.72 nM, an IC50 (second compound 0.316 µM) of 4.44 nM and an IC50 (second compound 1 µM) of 4.61 nM. For the same compound, the IC50 (second compound 3.16 µM) was 5.03 nM, the IC50 (second compound 10 µM) was 3.79 nM and the viability, T/C (second compound 0.1 µM, first compound 0.000949 µM) was 97.9%. The viability, T/C (second compound 0.1 µM, first compound 0.003 µM) was 75.7%, the viability, T/C (second compound 0.1 µM, first compound 0.00949 µM) was 10.4% and the viability, T/C (second compound 0.1 µM, first compound 0.03 µM) was 0.34%. It also gave a viability, T/C (second compound 0.1 µM, first compound 0.0949 µM) of 0.56%, a viability, T/C (second compound 0.1 µM, first compound 0.3 µM) of 0.73% and a viability, T/C (second compound 0.316 µM, first compound 0.000949 µM) of 109%. For the same compound, the viability, T/C (second compound 0.316 µM, first compound 0.003 µM) was 72.6%, the viability, T/C (second compound 0.316 µM, first compound 0.00949 µM) was 6.27% and the viability, T/C (second compound 0.316 µM, first compound 0.03 µM) was 0.48%. It also gave a viability, T/C (second compound 0.316 µM, first compound 0.0949 µM) of 0.41%, a viability, T/C (second compound 0.316 µM, first compound 0.3 µM) of 0.41% and a viability, T/C (second compound 1 µM, first compound 0.000949 µM) of 102%. The viability, T/C (second compound 1 µM, first compound 0.003 µM) was 72%, the viability, T/C (second compound 1 µM, first compound 0.00949 µM) was 13.1% and the viability, T/C (second compound 1 µM, first compound 0.03 µM) was 0.32%. The viability, T/C (second compound 1 µM, first compound 0.0949 µM) was 0.27%, the viability, T/C (second compound 1 µM, first compound 0.3 µM) was 0.39% and the viability, T/C (second compound 3.16 µM, first compound 0.000949 µM) was 102%. For the same compound, the viability, T/C (second compound 3.16 µM, first compound 0.003 µM) was 80.1%, the viability, T/C (second compound 3.16 µM, first compound 0.00949 µM) was 13.2% and the viability, T/C (second compound 3.16 µM, first compound 0.03 µM) was 0.29%. For the same compound, the viability, T/C (second compound 3.16 µM, first compound 0.0949 µM) was 0.26%, the viability, T/C (second compound 3.16 µM, first compound 0.3 µM) was 0.35% and the viability, T/C (second compound 10 µM, first compound 0.000949 µM) was 85.6%. For the same compound, the viability, T/C (second compound 10 µM, first compound 0.003 µM) was 59.8%, the viability, T/C (second compound 10 µM, first compound 0.00949 µM) was 11.6% and the viability, T/C (second compound 10 µM, first compound 0.03 µM) was 0.72%. The viability, T/C (second compound 10 µM, first compound 0.0949 µM) was 0.38% and the viability, T/C (second compound 10 µM, first compound 0.3 µM) was 0.53%.
